We go through one compound from patent US11771681B2, “Therapeutic compounds” (SMALL PHARMA LTD, priority 2019, dated 2023).

The nature of data set [1]: In vitro intrinsic clearance in human hepatocytes. Conditions: both sexes, pooled hepatocytes in suspension, human (mixed gender) hepatocytes pooled from 10 donors, 0.545 million cells/mL, up to 60 minutes at 37° C., weighted on ratio of D0, D1 and D2. In kind it is in vitro ADME. The procedure:
(§1) Human (mixed gender) hepatocytes pooled from 10 donors (0.545 million cells/mL) were used to investigate the in vitro intrinsic clearance of DMT and 6 deuterated analogues.
(§2) A concentration of 5 μM was used for all test compounds, as well as sumatriptan, serotonin, benzylamine controls. This concentration was chosen in order to maximise the signal-to-noise ratio, while remaining under the Michaelis constant (Km) for the monoamine oxidase enzyme (MAO). Diltiazem and diclofenac controls were used at a laboratory-validated concentration of 1 μM.
(§3) Test compounds were mixed with the hepatocyte suspension within a 96-well plate and incubated for up to 60 minutes at 37° C. […] At 7 time points, small aliquots were withdrawn, and the test compound/blend concentration therein was measured by LC-MS/MS. The time points measured were 2, 4, 8, 15, 30, 45 and 60 minutes. […]
(§4) The MRM transitions were determined from a preliminary analysis of DMT samples containing either no deuterium (for D0 transition), or high levels of either D1 or D2 deuteration (for the D1 and D2 transitions respectively).
(§5) The resulting concentration-time profile was then used to calculate intrinsic clearance (CLint) and half-life (t½). […] Intrinsic clearance is calculated from the slope/elimination rate constant and the formula is CLint=(−1000*slope)/cell density in 1E6 cells/ml, to give units of microlitre/min/million cells. […]

The test system of a further data set is human hepatocytes. Description: In vitro intrinsic clearance in human hepatocytes. In kind it is in vitro ADME. Conditions: human (mixed gender) hepatocytes pooled from 10 donors, 0.545 million cells/mL; 5 μM; up to 60 minutes at 37° C.; calculated, weighted on ratio of D0, D1 and D2. The procedure: as §1, §2, §3, §4, §5

Broadly, the hepatocyte CLint is the capacity of the preparation to metabolise the compound, expressed as a volume cleared per time. `CN(C)CCc1c[nH]c2ccccc12` [DMT, N,N-dimethyltryptamine]: the hepatocyte CLint at 5 μM in data set [1] turned out to be 13.8 µL/min/1e6 cells. For the same compound, in the data set on human hepatocytes, the Half-life was 1.54 h.
